Experimental data: patent publication US9370517B2, “Substituted pyrazolopyrimidines as Akt kinase inhibitors” (Bayer Intellectual Property GmbH, priority 2012, dated 2016)

What was measured:
[1] = molecular target: T1, His-tagged human recombinant kinase full-length Akt1 (Homo sapiens, UniProt P31749); assay: Akt1 kinase assay (TR-FRET); format: biochemical; conditions: 10 μM ATP, 60 min at 22° C.; read-out: Akt1, median IC50
T1 construct: His-tagged human recombinant kinase full-length Akt1; His; purchased Invitrogen PV 3599; host or cells: insect cells
T1 sequence (P31749 whole entry): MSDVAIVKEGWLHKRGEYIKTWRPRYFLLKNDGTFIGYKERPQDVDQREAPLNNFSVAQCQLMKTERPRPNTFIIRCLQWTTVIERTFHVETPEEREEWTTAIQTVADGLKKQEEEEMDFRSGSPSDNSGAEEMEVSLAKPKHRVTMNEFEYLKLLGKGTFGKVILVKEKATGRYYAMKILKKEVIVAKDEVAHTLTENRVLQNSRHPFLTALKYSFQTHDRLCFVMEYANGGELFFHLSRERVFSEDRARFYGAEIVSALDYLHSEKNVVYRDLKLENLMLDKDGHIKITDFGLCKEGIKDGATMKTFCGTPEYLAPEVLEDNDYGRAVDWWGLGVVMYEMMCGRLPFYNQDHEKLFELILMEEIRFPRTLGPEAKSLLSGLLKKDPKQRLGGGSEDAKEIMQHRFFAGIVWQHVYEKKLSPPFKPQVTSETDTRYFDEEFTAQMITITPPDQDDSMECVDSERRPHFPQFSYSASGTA
Text: Biological Assay 1.0: Akt1 Kinase Assay
Akt1 inhibitory activity of compounds of the present invention was quantified employing the Akt1 TR-FRET assay as described in the following paragraphs.
(§1) His-tagged human recombinant kinase full-length Akt1 expressed in insect cells was purchased form Invitrogen (part number PV 3599). As substrate for the kinase reaction the biotinylated peptide biotin-Ahx-KKLNRTLSFAEPG (SEQ ID NO: 1) (C-terminus in amide form) was used which can be purchased e.g. from the company Biosynthan GmbH (Berlin-Buch, Germany).
(§2) For the assay 50 nl of a 100fold concentrated solution of the test compound in DMSO was pipetted into a black low volume 384well microtiter plate (Greiner Bio-One, Frickenhausen, Germany), 2 μl of a solution of Akt1 in assay buffer [50 mM TRIS/HCl pH 7.5, 5 mM MgCl2, 1 mM dithiothreitol, 0.02% (v/v) Triton X-100 (Sigma)]were added and the mixture was incubated for 15 min at 22° C. to allow prebinding of the test compounds to the enzyme before the start of the kinase reaction. Then the kinase reaction was started by the addition of 3 μl of a solution of adenosine-tri-phosphate (ATP, 16.7 μM=>final conc. in the 5 μl assay volume is 10 μM) and substrate (1.67 μM=>final conc. in the 5 μl assay volume is 1 μM) in assay buffer and the resulting mixture was incubated for a reaction time of 60 min at 22° C. […]
(§3) The resulting mixture was incubated 1 h at 22° C. to allow the binding of the biotinylated phosphorylated peptide to the streptavidine-XL665 and the antibodies. Subsequently the amount of phosphorylated substrate was evaluated by measurement of the resonance energy transfer from the anti-mouse-IgG-Eu-Chelate to the streptavidine-XL665. Therefore, the fluorescence emissions at 620 nm and 665 nm after excitation at 350 nm was measured in a HTRF reader, e.g. a Rubystar (BMG Labtechnologies, Offenburg, Germany) or a Viewlux (Perkin-Elmer). […]

[2] = molecular target: T2, His-tagged human recombinant kinase full-length Akt2 (Homo sapiens, UniProt P31751); assay: Akt2 kinase assay (TR-FRET); format: biochemical; conditions: 10 μM ATP, 60 min at 22° C.; read-out: Akt2, median IC50
T2 construct: His-tagged human recombinant kinase full-length Akt2; His; purchased Invitrogen PV 3975; host or cells: insect cells
T2 sequence (P31751 whole entry): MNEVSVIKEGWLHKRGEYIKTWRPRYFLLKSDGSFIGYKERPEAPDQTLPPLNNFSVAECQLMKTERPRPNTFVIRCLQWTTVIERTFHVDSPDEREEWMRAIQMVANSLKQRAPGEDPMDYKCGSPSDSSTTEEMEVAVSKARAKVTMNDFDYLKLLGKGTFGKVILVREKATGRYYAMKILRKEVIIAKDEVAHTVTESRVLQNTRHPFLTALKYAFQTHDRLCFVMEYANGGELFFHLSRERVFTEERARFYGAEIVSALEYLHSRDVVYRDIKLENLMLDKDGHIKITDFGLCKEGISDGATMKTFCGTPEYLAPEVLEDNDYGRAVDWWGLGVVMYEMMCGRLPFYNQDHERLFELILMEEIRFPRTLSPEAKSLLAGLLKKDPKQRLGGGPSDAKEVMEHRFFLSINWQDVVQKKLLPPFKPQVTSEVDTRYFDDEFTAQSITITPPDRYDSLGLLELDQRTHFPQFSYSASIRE
Text: Biological Assay 2.0: Akt2 Kinase Assay
Akt2 inhibitory activity of compounds of the present invention was quantified employing the Akt2 TR-FRET assay as described in the following paragraphs.
as §1, with “full-length Akt2” for “full-length Akt1”, “cells and activated by PDK1” for “cells”, “purchased from” for “purchased form”, “PV 3975).” for “PV 3599).”
as §2, with “Akt2” for “Akt1”, “(Sigma)] were” for “(Sigma)]were”
as §3, with “TR-FRET” for “HTRF”

p-AKT1/2/3-S473 = assay: Cellular p-AKT1/2/3-S473 assay in KPL-4 cells; format: cell-based; conditions: Homo sapiens, KPL4, read-out: pAKT-S473 median IC50, 2 hours treatment, read-out: pAKT-S743 median IC50
Protocol: (§4) The molecular mechanism of action was investigated in a set of experiments to assess the inhibition of the PI3K-AKT-mTOR pathway in responsive cell lines such as KPL-4 breast tumour cell line (PIK3CA^H1047R, HER2^O/E and hormone independent). The phospho-substrates of PI3K-AKT-mTOR axis were used as the readouts to reflect pathway inhibition. Cells were seeded at 60-80% confluency per well in 96-well cell culture plates. After overnight incubation at 37° C. 5% CO2, cells were treated with compounds and vehicle at 37° C. for 2 hours. Thereafter, cells were lysed in 150 μl lysis buffer and the levels of phospho-AKT at 1308 and S473 and p-4E-BP1 at T70 sites were determined with the corresponding AlphaScreen® SureFire® assay kits (Perkin Elmer: 4E-BPI Assay Kit Cat # TRG4E2S10K; Akt 1/2/3 p-Ser 473 #TGRA4S500 and Akt 1/2/3 p-Thr 308 #TGRA3S500 as well as IgG detection Kit #6760617M) as described in the manuals. All measurements where at least done in duplicates and confirmed by independent repetition. Alternatively pAKT-S473 was measured using the “Akt Duplex” of the MULTI-SPOT® Assay System (Fa. Meso Scale Discovery, Cat# N41100B-1) following manufacturers instructions. Each assay used 20 μg of protein extract and measured total AKT and p-AKT content simultaneously in one well. All measurements where at least done in duplicates and confirmed by independent repetition. Values for P-AKT are expressed as percentage of P-AKT level compared to total-AKT content of the extracts.

p-4E-BP1-T70 = assay: Cellular p-4E-BP1-T70 assay in KPL-4 cells; format: cell-based; conditions: Homo sapiens, KPL4, 2 hours treatment, read-out: P4EBP1-T70 median IC50
Protocol: as §4

[3] = system: KPL-4 breast cancer cell line; assay: Tumor cell proliferation assay (CellTiter-Glo), KPL-4; format: cell-based; conditions: Homo sapiens, KPL4, 72 h drug exposure; for inhibition at 1.67 µM: read-out: KPL-4 median inhibition at 1.67 μM (%)
Protocol: (§5) Biological Assay 4.0: Tumor Cell Proliferation Assays
(§6) Compounds were tested in a cell-based assay that measures the capacity of the compounds to inhibit tumour cell proliferation following a 72 h drug exposure. Cell viability is determined using CellTiter-Glow® (CTG, Promega, cat# G7571/2/3). The CellTiter-Glo® Luminescent Cell Viability Assay is a homogeneous method to determine the number of viable cells in culture. Detection is based on using the luciferase reaction to measure the amount of ATP from viable cells. The amount of ATP in cells correlates with cell viability. Within minutes after a loss of membrane integrity, cells lose the ability to synthesize ATP, and endogenous ATPases destroy any remaining ATP; thus the levels of ATP fall precipitously.
(§7) Cells were plated at 3000-5000 cells/well (depending on the cell lines) in 90 μL growth medium on MTPs (Corning; #3603, black plate, clear flat bottom). For each cell line assayed, cells were plated onto a separate plate for determination of […] at t=0 hour and t=72 hour time points. Following overnight incubation at 37° C., chemiluminescence values for the t=0 samples were determined after adding 10 μl medium and 100 μl CTG solution according to manufacture protocol. Plates for the t=72 hour time points were treated with compounds diluted into growth medium at ten times final concentration added in 10 μL to the cell culture plate. Cells were then incubated for 72 hours at 37° C. Chemiluminescence values for the t=72 hour samples were determined. […] Experiments were controlled using a reference compound as standard.
(§8) Preferred compounds of the present invention show in this assay an inhibition of cell growth of cell lines such as the KPL-4 breast cancer cell line and the MCF-7 breast tumour cell line ([…], hormone dependent) with a median IC50 of <10 μM, more preferably, median IC50≦1 μM.

[4] = system: MCF-7 breast tumour cell line; assay: Tumor cell proliferation assay (CellTiter-Glo), MCF-7; format: cell-based; conditions: Homo sapiens, MCF7, 72 h drug exposure; for inhibition at 1.67 µM: read-out: MCF-7 median inhibition at 1.67 μM (%)
Protocol: as §5, §6, §7, §8

Compound | IC50 [1] [nM] | IC50 [2] [nM] | IC50 (p-AKT1/2/3-S473) [nM] | IC50 (p-4E-BP1-T70) [nM] | inhibition at 1.67 µM [3] [%] | IC50 [3] [nM] | inhibition at 1.67 µM [4] [%] | IC50 [4] [nM]
NC1(c2ccc(-c3nn4c(C(F)(F)F)cc(C(F)(F)F)nc4c3-c3ccccc3)cc2)CCC1 [Example 3, 1-{4-[3-Phenyl-5,7-bis(trifluoromethyl)pyrazolo[1,5-a]pyrimidin-2-yl]phenyl}cyclobutanamine] | 320 | 860 | 1800 | 3300 | 6.6 | 2400 | 25.6 | 2000
Cc1cc(C)n2nc(-c3ccc(C4(N)CCC4)cc3)c(-c3ccccc3)c2n1 [Example 1, 1-[4-(5,7-Dimethyl-3-phenylpyrazolo[1,5-a]pyrimidin-2-yl)-phenyl]cyclobutanamine] | 66 | 460 | 130 | 1800 | 29.8 | 1900 | 47.4 | 1800
CCc1cc(CC)n2nc(-c3ccc(C4(N)CCC4)cc3)c(-c3ccccc3)c2n1 [Example 2, 1-[4-(5,7-Diethyl-3-phenylpyrazolo[1,5-a]pyrimidin-2-yl)phenyl]-cyclobutanamine] | 410 | 410 | 1700 | 3700 | 7.1 | 2200 | 24.5 | 2000
